Assay results published in paper PMC8567874, “Metronomic delivery of orally available pemetrexed-incorporated colloidal dispersions for boosting tumor-specific immunity” (Drug Delivery, 2021).

Assay: In situ single-pass rat intestinal perfusion
Assay type: in vivo
Conditions: other: in situ single-pass intestinal perfusion, rat intestine, n = 4, read-out: Effective permeability (Peff)
Method: The in situ single-pass intestinal effective permeabilities (Peff) of PMX, PMX/DL(1:1), PMX/DL(1:2), PMX/DL(1:1)-CD, and PMX/DL(1:2)-CD were investigated in rats. The rats were fasted overnight for 12–16 h with free access to water before the experiment and then anesthetized by intramuscular injection of tiletamine·HCl–zolazepam mixture (1:1 [w/w]; 40 mg/kg). With the animal in the supine position, the abdominal cavity was opened using a midline longitudinal incision, and the intestine (duodenum, jejunum, and ileum) was exposed and subsequently intubated at the two ends with a polypropylene perfusion tube connected to a peristaltic pump (Harvard Apparatus, Holliston, MA, USA). After covering the entire excised area with a cotton pad soaked with warm normal saline, the cannulated intestinal segments were flushed with blank perfusion buffer at 37 °C for 30 min, at a constant flow rate of 0.5 mL/min, to remove residual intestinal contents. Then, drug solutions of PMX, PMX/DL(1:1), PMX/DL(1:2), PMX/DL(1:1)-CD, or PMX/DL(1:2)-CD (equivalent to 100 μg/mL PMX) were perfused through the intestinal lumen at 37 °C and a constant flow rate of 0.2 mL/min. After allowing 30 min to achieve a steady-state, outlet perfusate was collected every 15 min for 120 min. In addition, to assess the reliability of the perfusion study, 100 μg/mL fluorescein diluted in perfusion buffer was perfused separately under the same conditions and the collected samples were analyzed at excitation/emission wavelengths of 494/512 nm using a microplate reader (PerkinElmer multimode plate reader; PerkinElmer, Waltham, MA, USA) as a low-permeability marker. During the experiment, all animals were kept on heated pads under a heat lamp to maintain a normal body temperature. At the end of the experiment, the lengths and radii of the cannulated intestinal segments were measured, taking care to avoid stretching them. The collected samples were then filtered using 0.45-μm PVDF filters and stored at −20 °C before analyses. The outlet concentration of PMX in the perfusate was analyzed by HPLC as described above. In addition, the errors caused by rat intestinal water absorption and secretion during perfusion were corrected by the net water flux (ratio of the […] perfusate flows, Qout/Qin) and the corrected drug concentration in perfusate for each formulation was calculated based on the following equation (i.e. gravimetric method): Cout,corr = Cout × (Qout/Qin), where Cout,corr is the corrected outlet PMX concentration (µg/mL), Cout is the PMX outlet concentration (µg/mL), Qin (mL/min) is the flow rate entering the intestine, and Qout (mL/min) is the measured perfusate exit flow (net weight/15 min, assumed density of 1.0 g/mL) for the specified time interval. After correction, the Peff was calculated using the equation: Peff = Qin/A × ln(Cout,corr/Cin), where A is the intestinal area available for absorption (2πrl) based on its length (l) and radius (r).

Molecule `O=C1OC2(c3ccc(O)cc3Oc3cc(O)ccc32)c2ccccc21` [fluorescein] has a Papp at 120 min, 100 μg/mL of 0.1 ± 0.2 ×10⁻⁶ cm/s.
